Experimental findings from ChEMBL document CHEMBL4627258, “Photo effect on the CD1d-binding ability of azobenzene-attached analogues of α-GalCer” (Bioorg Med Chem Lett, 2020) are described below.

Molecules are shown by their SMILES.

Holding throughout (assay type): protein assay
Experiment [1] deals with T1, Antigen-presenting glycoprotein CD1d (Mus musculus) (UniProt P11609+P11610). Put plainly: Binding affinity to WTB6 mouse thymus CD1d assessed as restriction ratio for reduction in iNKT/CD1d interaction by FACS analysis relative to control. A general note: A flow cytometer gives signals particle by particle.
In experiment [2] the target is T1, Antigen-presenting glycoprotein CD1d (Mus musculus). Put plainly: Binding affinity to WTB6 mouse spleen CD1d assessed as restriction ratio for reduction in iNKT/CD1d interaction by FACS analysis relative to control.
Experiment [3] has the same target. Put plainly: Binding affinity to CD1d in Traj18 knock out C57BL/6 mouse assessed as restriction ratio for reduction in iNKT/CD1d interaction by FACS analysis relative to control.

Turning to `CCCCCCCCCCCCCC[C@@H](O)[C@@H](O)[C@H](CO[C@H]1O[C@H](CO)[C@H](O)[C@H](O)[C@H]1O)NC(=O)CCCCOc1ccc(/N=N\c2ccccc2)cc1`, the figures for the Ratio in experiment [1], in experiment [2] and in experiment [3] were 0.05%, 0.05% and 0.57%, respectively.
Regarding `CCCCCCCCCCCCCC[C@@H](O)[C@@H](O)[C@H](CO[C@H]1O[C@H](CO)[C@H](O)[C@H](O)[C@H]1O)NC(=O)CCCCCCOc1ccc(/N=N/c2ccccc2)cc1`, the results for the Ratio in experiment [1], in experiment [2] and in experiment [3] were 0.35%, 0.31% and < 0.02%, respectively.
In the case of `CCCCCCCCCCCCCC[C@@H](O)[C@@H](O)[C@H](CO[C@H]1O[C@H](CO)[C@H](O)[C@H](O)[C@H]1O)NC(=O)CCCCCCCCCCOc1ccc(/N=N/c2ccccc2)cc1`, the Ratio in experiment [1] is 0.36%; in experiment [2] it was 0.5%; in experiment [3] it was < 0.02%.
For `CCCCCCCCCCCCCC[C@@H](O)[C@@H](O)[C@H](CO[C@H]1O[C@H](CO)[C@H](O)[C@H](O)[C@H]1O)NC(=O)CCCCCCCCOc1ccc(/N=N\c2ccccc2)cc1`, in that order: 0.37%, 0.48% and < 0.02%.
Consider `CCCCCCCCCCCCCC[C@@H](O)[C@@H](O)[C@H](CO[C@H]1O[C@H](CO)[C@H](O)[C@H](O)[C@H]1O)NC(=O)CCCCCCCCOc1ccc(/N=N/c2ccccc2)cc1`, for which the Ratio in experiment [1] was 0.28%; in experiment [2], 0.4%; in experiment [3], < 0.02%.
For the compound `CCCCCCCCCCCCCC[C@@H](O)[C@@H](O)[C@H](CO[C@H]1O[C@H](CO)[C@H](O)[C@H](O)[C@H]1O)NC(=O)CCCCOc1ccc(/N=N/c2ccccc2)cc1`, the Ratio in experiment [1] was found to be 0.09%; in experiment [2] it was 0.06%; in experiment [3] it was 0.28%.
Regarding `CCCCCCCCCCCCCCCCCCCCCCCCCC(=O)N[C@@H](CO[C@H]1O[C@H](CO)[C@H](O)[C@H](O)[C@H]1O)[C@H](O)[C@H](O)CCCCCCCCCCCCCC`, the Ratio in experiment [1] was 0.45%; in experiment [2], 0.66%; in experiment [3] it was < 0.02%.
With `CCCCCCCCCCCCCC[C@@H](O)[C@@H](O)[C@H](CO[C@H]1O[C@H](CO)[C@H](O)[C@H](O)[C@H]1O)NC(=O)CCCCCCCCCCOc1ccc(/N=N\c2ccccc2)cc1`, the Ratio is 0.44% in experiment [1], 0.57% in experiment [2] and < 0.02% in experiment [3].
As for `CCCCCCCCCCCCCC[C@@H](O)[C@@H](O)[C@H](CO[C@H]1O[C@H](CO)[C@H](O)[C@H](O)[C@H]1O)NC(=O)CCCCCCOc1ccc(/N=N\c2ccccc2)cc1`, the figures for the Ratio in experiment [1], in experiment [2] and in experiment [3] were 0.4%, 0.42% and < 0.02%, respectively.
